Among the data in ChEMBL document CHEMBL1909046, “DrugMatrix in vitro pharmacology data” are IC50 and Ki values, retold here.

One experiment has as its target T1, Leukotriene C4 synthase (Cavia porcellus, UniProt A6XA80).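 Also: enzyme inhibition assay of leukotriene C4 synthase, using LTA4 as the substrate; in other assays of this panel Not Active means under 50% inhibition at 10 µM.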
T1 sequence (A6XA80 whole entry): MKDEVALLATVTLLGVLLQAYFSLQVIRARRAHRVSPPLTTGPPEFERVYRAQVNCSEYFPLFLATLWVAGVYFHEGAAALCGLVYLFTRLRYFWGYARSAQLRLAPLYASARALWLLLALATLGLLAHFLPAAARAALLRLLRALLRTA
It counts as tissue-based, Lung.

Experiment [1] deals with Matrix metalloproteinase-9 (Homo sapiens, UniProt P14780). Kind of experiment: biochemical. Type of experiment: cell-based.
Experiment [2] is described as follows: DRUGMATRIX: Phosphodiesterase PDE4 enzyme inhibition (substrate: [3H]cAMP + cAMP). As to conditions: u-937; Not Active = under 50% inhibition at 10 µM.
The next experiment has as its target T2, Interstitial collagenase (Homo sapiens, UniProt P03956).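 Also: MMP-1 enzyme inhibition assay using a peptide substrate; in other assays of this panel Not Active means under 50% inhibition at 10 µM.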
T2 sequence (P03956 whole entry): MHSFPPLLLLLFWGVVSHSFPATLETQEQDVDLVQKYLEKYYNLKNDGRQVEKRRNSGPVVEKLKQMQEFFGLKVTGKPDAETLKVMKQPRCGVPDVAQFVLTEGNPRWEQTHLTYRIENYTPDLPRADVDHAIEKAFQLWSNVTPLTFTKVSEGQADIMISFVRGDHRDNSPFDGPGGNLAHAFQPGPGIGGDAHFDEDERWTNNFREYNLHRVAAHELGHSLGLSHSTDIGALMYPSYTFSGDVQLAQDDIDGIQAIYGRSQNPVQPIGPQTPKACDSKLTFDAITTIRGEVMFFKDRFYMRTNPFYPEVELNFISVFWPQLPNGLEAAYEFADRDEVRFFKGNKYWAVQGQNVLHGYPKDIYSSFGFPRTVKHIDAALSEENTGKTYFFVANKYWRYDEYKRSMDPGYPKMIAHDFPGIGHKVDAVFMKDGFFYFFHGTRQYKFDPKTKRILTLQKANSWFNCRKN
The experiment is described as follows: biochemical. Type of experiment: tissue-based, Rheumatoid synovial fibroblasts.

Experiment [3] deals with 5-hydroxytryptamine receptor 2B (Homo sapiens, UniProt P41595). Type of experiment: cell membranes, CHO-K1, Membrane.
Experiment [4] concerns the target T3, C-C chemokine receptor type 4 (Homo sapiens, UniProt P51679). Also: in other assays of this panel Not Active means under 50% inhibition at 10 µM.
T3 sequence (P51679 whole entry): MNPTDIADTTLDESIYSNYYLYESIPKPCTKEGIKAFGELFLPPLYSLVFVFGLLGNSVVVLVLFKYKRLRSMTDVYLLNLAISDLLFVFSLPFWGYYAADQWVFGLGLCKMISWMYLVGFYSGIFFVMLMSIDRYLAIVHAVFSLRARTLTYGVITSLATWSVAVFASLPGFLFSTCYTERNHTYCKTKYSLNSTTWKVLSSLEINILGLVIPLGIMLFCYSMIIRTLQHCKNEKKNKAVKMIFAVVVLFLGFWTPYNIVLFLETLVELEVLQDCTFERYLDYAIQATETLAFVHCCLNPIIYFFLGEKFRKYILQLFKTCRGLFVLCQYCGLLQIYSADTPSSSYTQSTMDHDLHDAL
It counts as cell membranes, Chem-1, Membrane. As to conditions: chem-1.

Chain of Matrix metalloproteinase-9 (P14780 whole entry): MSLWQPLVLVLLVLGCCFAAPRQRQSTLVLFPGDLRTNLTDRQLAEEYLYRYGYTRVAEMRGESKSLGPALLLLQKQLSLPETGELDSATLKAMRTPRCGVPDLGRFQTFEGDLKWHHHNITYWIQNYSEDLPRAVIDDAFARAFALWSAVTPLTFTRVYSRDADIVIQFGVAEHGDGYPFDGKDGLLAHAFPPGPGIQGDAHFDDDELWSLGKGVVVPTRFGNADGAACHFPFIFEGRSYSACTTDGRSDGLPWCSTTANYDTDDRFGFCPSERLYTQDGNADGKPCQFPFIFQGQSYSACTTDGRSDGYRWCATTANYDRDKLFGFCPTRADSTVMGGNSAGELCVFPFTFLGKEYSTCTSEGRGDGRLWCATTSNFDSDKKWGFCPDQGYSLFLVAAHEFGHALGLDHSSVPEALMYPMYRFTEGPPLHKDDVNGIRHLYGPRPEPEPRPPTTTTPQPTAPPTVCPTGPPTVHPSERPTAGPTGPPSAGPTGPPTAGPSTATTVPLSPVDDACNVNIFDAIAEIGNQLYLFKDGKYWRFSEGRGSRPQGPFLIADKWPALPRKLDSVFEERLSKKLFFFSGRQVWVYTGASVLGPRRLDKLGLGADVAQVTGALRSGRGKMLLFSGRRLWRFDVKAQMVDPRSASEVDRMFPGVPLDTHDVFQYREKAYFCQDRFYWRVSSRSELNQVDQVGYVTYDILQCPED
Chain of 5-hydroxytryptamine receptor 2B (P41595 whole entry): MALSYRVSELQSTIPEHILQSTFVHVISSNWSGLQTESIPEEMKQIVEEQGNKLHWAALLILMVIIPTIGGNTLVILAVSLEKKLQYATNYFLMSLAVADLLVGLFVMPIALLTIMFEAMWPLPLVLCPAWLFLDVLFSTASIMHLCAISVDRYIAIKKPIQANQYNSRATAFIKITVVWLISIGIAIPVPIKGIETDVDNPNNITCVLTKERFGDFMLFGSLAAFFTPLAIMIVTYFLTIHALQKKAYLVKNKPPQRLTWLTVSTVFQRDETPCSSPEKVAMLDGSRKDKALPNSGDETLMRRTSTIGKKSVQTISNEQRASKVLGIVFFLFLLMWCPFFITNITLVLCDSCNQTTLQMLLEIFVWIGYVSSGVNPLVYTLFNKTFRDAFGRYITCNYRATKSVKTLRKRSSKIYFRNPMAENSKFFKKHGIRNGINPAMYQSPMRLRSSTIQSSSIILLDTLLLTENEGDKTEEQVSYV

Turning to `CC(C)CN(C[C@@H](O)[C@H](Cc1ccccc1)NC(=O)O[C@H]1CCOC1)S(=O)(=O)c1ccc(N)cc1`, the IC50 entry (on Leukotriene C4 synthase; in experiment [1]; in experiment [2]; at Interstitial collagenase; in experiment [3] (cho-k1); in experiment [4]) was “Not Active” in each case. Besides, the Ki result in experiment [2] is on record as “Not Active”.

With `c1ccc(Nc2ccc(Nc3ccccc3)cc2)cc1`, the concentration for half-maximal inhibition (IC50) result against Leukotriene C4 synthase is “Not Active”; in experiment [1], “Not Active”; in experiment [2], “Not Active”; against Interstitial collagenase it was “Not Active”; in experiment [3] (read-out: IC50) it was 142 nM; in experiment [4], “Not Active”. In addition, the Ki result is “Not Active” in experiment [2] and 90 nM in experiment [3] (read-out: Ki).

For the compound `COc1cc2c3cc1Oc1cc(ccc1O)C[C@@H]1c4c(cc(OC)c(O)c4Oc4ccc(cc4)C[C@@H]3N(C)CC2)CC[N+]1(C)C.[Cl-]`, the half-inhibitory concentration (IC50) entry (on Leukotriene C4 synthase; in experiment [1]; in experiment [2]; against Interstitial collagenase; in experiment [3] (cho-k1); in experiment [4]) was “Not Active” in each case. In addition, the Ki entry in experiment [2] is recorded as “Not Active”.

With `NC(=O)N1c2ccccc2CCc2ccccc21`, the IC50 entry (against Leukotriene C4 synthase; in experiment [1]; in experiment [2]; at Interstitial collagenase; in experiment [3] (cho-k1); in experiment [4]) was “Not Active” each time. Further, the Ki entry in experiment [2] is given as “Not Active”.

Take `O=C1CC[C@@H](N2C(=O)c3ccccc3C2=O)C(=O)N1`: the IC50 result (against Leukotriene C4 synthase; in experiment [1]; in experiment [2]; against Interstitial collagenase; in experiment [3] (cho-k1); in experiment [4]) was “Not Active” throughout. Also, in experiment [2], the inhibition constant Ki result is “Not Active”.

As for `Cc1onc(O)c1CC(N)C(=O)O` (racemic) [(R,S)-AMPA], the 50% inhibitory concentration (IC50) result (against Leukotriene C4 synthase; in experiment [1]; in experiment [2]; on Interstitial collagenase; in experiment [3] (cho-k1); in experiment [4]) was “Not Active” each time. The Ki entry in experiment [2] was “Not Active”.

On to `Cc1ccc2cc3c(ccc4ccccc43)c3c2c1CC3` [3-METHYLCHOLANTHRENE], for which the IC50 entry (at Leukotriene C4 synthase; in experiment [1]; in experiment [2]; on Interstitial collagenase; in experiment [3] (cho-k1); in experiment [4]) was “Not Active” each time. Moreover, the Ki entry in experiment [2] is “Not Active”.

`CC[C@@]1(O)C[C@H](O[C@H]2C[C@H](N(C)C)[C@H](O[C@H]3C[C@H](O)[C@H](O[C@H]4CCC(=O)[C@H](C)O4)[C@H](C)O3)[C@H](C)O2)c2c(cc3c(c2O)C(=O)c2c(O)cccc2C3=O)[C@H]1C(=O)OC` [ACLARUBICIN]: the IC50 result on Leukotriene C4 synthase is “Not Active”; in experiment [1], “Not Active”; in experiment [2], “Not Active”; against Interstitial collagenase, “Not Active”; in experiment [3] (read-out: IC50), 1110 nM; in experiment [4] it was “Not Active”. In addition, the results for the inhibitory constant (Ki) result in experiment [2] and in experiment [3] (read-out: Ki) were “Not Active” and 704 nM, respectively.

With `Nc1nc2c(ncn2COCCO)c(=O)[nH]1` [ACYCLOVIR], the IC50 entry (against Leukotriene C4 synthase; in experiment [1]; in experiment [2]; against Interstitial collagenase; in experiment [3] (cho-k1); in experiment [4]) was “Not Active” each time. In addition, in experiment [2], the Ki result is given as “Not Active”.

With `Cc1c(C)c2c(c(C)c1O)CC[C@@](C)(CCC[C@H](C)CCC[C@H](C)CCCC(C)C)O2` [ALPHA-TOCOPHEROL], the IC50 result (against Leukotriene C4 synthase; in experiment [1]; in experiment [2]; against Interstitial collagenase; in experiment [3] (cho-k1); in experiment [4]) was “Not Active” in each case. Also, the Ki result in experiment [2] is given as “Not Active”.

Regarding `CN(C)c1nc(N(C)C)nc(N(C)C)n1` [ALTRETAMINE], the IC50 result (against Leukotriene C4 synthase; in experiment [1]; in experiment [2]; against Interstitial collagenase; in experiment [3] (cho-k1); in experiment [4]) was “Not Active” each time. Also, the Ki result in experiment [2] is “Not Active”.

On to `Nc1c(Br)cc(Br)cc1CN[C@H]1CC[C@H](O)CC1` [AMBROXOL], for which the 50% inhibitory concentration (IC50) result (against Leukotriene C4 synthase; in experiment [1]; in experiment [2]; against Interstitial collagenase; in experiment [3] (cho-k1); in experiment [4]) was “Not Active” throughout. Besides, in experiment [2], the Ki result is given as “Not Active”.

Consider `NCCCCCC(=O)O` [AMINOCAPROIC ACID], for which the IC50 result (on Leukotriene C4 synthase; in experiment [1]; in experiment [2]; on Interstitial collagenase; in experiment [3] (cho-k1); in experiment [4]) was “Not Active” in each case. The inhibitory constant (Ki) entry in experiment [2] is given as “Not Active”.

For `CCC1(c2ccc(N)cc2)CCC(=O)NC1=O` (centres undefined) [AMINOGLUTETHIMIDE], the IC50 entry (on Leukotriene C4 synthase; in experiment [1]; in experiment [2]; against Interstitial collagenase; in experiment [3] (cho-k1); in experiment [4]) was “Not Active” in each case. In addition, in experiment [2], the Ki entry is on record as “Not Active”.

With `Cc1ccc(/N=C/N(C)/C=N/c2ccc(C)cc2C)c(C)c1` [AMITRAZ], the concentration for half-maximal inhibition (IC50) result (against Leukotriene C4 synthase; in experiment [1]; in experiment [2]; at Interstitial collagenase; in experiment [3] (cho-k1); in experiment [4]) was “Not Active” each time. In addition, the inhibition constant (Ki) result in experiment [2] is “Not Active”.

Consider `CCOC(=O)C1=C(COCCN)NC(C)=C(C(=O)OC)C1c1ccccc1Cl` (centres undefined) [AMLODIPINE], for which the IC50 entry (against Leukotriene C4 synthase; in experiment [1]; in experiment [2]; against Interstitial collagenase; in experiment [3] (cho-k1); in experiment [4]) was “Not Active” throughout. Moreover, the inhibition constant (Ki) entry in experiment [2] was “Not Active”.

With `COc1ccc(C[C@H]2NC[C@H](O)[C@H]2OC(C)=O)cc1` [ANISOMYCIN], the IC50 result (against Leukotriene C4 synthase; in experiment [1]; in experiment [2]; at Interstitial collagenase; in experiment [3] (cho-k1); in experiment [4]) was “Not Active” in each case. For the same compound, the inhibition constant Ki result (on Leukotriene C4 synthase; in experiment [1]; in experiment [2]; on Interstitial collagenase; in experiment [3] (cho-k1); in experiment [4]) was “Not Active” each time.

`Nc1ncn([C@@H]2O[C@H](CO)[C@@H](O)[C@H]2O)c(=O)n1` [AZACITIDINE]: the concentration for half-maximal inhibition (IC50) result (on Leukotriene C4 synthase; in experiment [1]; in experiment [2]; at Interstitial collagenase; in experiment [3] (cho-k1); in experiment [4]) was “Not Active” throughout. For the same compound, in experiment [2], the inhibitory constant (Ki) result is recorded as “Not Active”.

Regarding `CN(C)C(=O)Oc1cc(OC(=O)N(C)C)cc(C(O)CNC(C)(C)C)c1` (centres undefined) [BAMBUTEROL], the half-inhibitory concentration (IC50) result (at Leukotriene C4 synthase; in experiment [1]; in experiment [2]; against Interstitial collagenase; in experiment [3] (cho-k1); in experiment [4]) was “Not Active” in each case. The inhibition constant (Ki) entry in experiment [2] is on record as “Not Active”.

As for `CN(C)CCCN1c2ccccc2Sc2ccc(Cl)cc21` [CHLORPROMAZINE], the IC50 result (against Leukotriene C4 synthase; in experiment [1]; in experiment [2]; against Interstitial collagenase; in experiment [4]) was “Not Active” throughout. In addition, the Ki result in experiment [2] is “Not Active”.

With `COc1cc2nc(N3CCN(C(=O)C4COc5ccccc5O4)CC3)nc(N)c2cc1OC` (centres undefined) [DOXAZOSIN], the IC50 entry on Leukotriene C4 synthase was “Not Active”; in experiment [1], “Not Active”; in experiment [2] it was “Not Active”; on Interstitial collagenase (read-out: IC50) it was 5750 nM; in experiment [4], “Not Active”. The inhibition constant Ki result in experiment [2] was “Not Active”.

On to `C[C@]12CC[C@@H]3c4ccc(O)cc4CC[C@H]3[C@@H]1CCC2=O` [ESTRONE], for which the half-inhibitory concentration (IC50) entry (on Leukotriene C4 synthase; in experiment [1]; in experiment [2]; against Interstitial collagenase; in experiment [4]) was “Not Active” each time. The Ki result in experiment [2] is “Not Active”.

As for `Cc1ccc(N(CC2=NCCN2)c2cccc(O)c2)cc1` [PHENTOLAMINE], the concentration for half-maximal inhibition (IC50) entry (against Leukotriene C4 synthase; in experiment [1]; in experiment [2]; at Interstitial collagenase; in experiment [4]) was “Not Active” each time. In experiment [2], the inhibition constant Ki result was “Not Active”.

Usually IC50 stands for the concentration that gives 50% inhibition. Broadly, the Ki is the equilibrium dissociation constant of an inhibitor or competing ligand from its target.
